Source: US6503943B1, “Platinum complex, its preparation and therapeutic application” (priority 1998, dated 2003)
Where “and” joins values, the source holds several entries; their conditions need not be identical. Identical values can stand only once.

How the values were obtained:
leucaemia L1210 [1] = experiment: Antitumor effect at animals with leucaemia L1210, single administration (Example 4); type: in vivo, mice DBA2
leucaemia L1210 [2] = experiment: Antitumor effect at animals with leucaemia L1210, intermitent administration 3x (Example 5); type: in vivo, mice DBA2; conditions: for Survival (in % of control) / Survival time, Geom. mean: 1st, 5th and 9th day
leucaemia L1210 [3] = experiment: Antitumor effect at animals with leucaemia L1210, continual versus intermitent regimen (Example 6); type: in vivo, mice DBA2
leucaemia L1210 [4] = experiment: Antitumor effect at animals with leucaemia L1210, continual regimen (Example 7); type: in vivo, mice DBA2; conditions: for Survival (in % of control) / Survival time, Geom. mean: 1th-9th day
Gardner lymphosarcoma = experiment: Antitumor effect at animals with solid form of Gardner lymphosarcoma (Example 8); type: in vivo, mice C3H; conditions: for Tumor mass (%) of control / Tumor mass, Arithm. mean: 5th day, tumors weighed 14th day
[5] = system: mammal adenocarcinoma MC2111; experiment: Antitumor effect at animals with solid form of mammal adenocarcinoma MC2111 (Example 9); type: in vivo, mice DBA1; conditions: for Tumor mass (%) of control / Tumor mass, Arithm. mean: 5th-13 day, tumor size 14th day, mass from regression
[6] = system: ascitic form of Ehrlich tumor (ATE); experiment: Antitumor effect at animals with ascitic form of Ehrlich tumor (ATE) (Example 10); type: in vivo, mice ICR; conditions: for Survival (in % of control) / Survival time, Geom. mean / Tumor mass (%) of control / Tumor mass, Arithm. mean: 1st-9th day; for Tumor mass (%) of control / Tumor mass, Arithm. mean: dissection 10th day
[7] = system: ascitic form of Ehrlich tumor (ATE); experiment: Antitumor effect at animals with ascitic form of Ehrlich tumor (ATE) (Example 11);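 on all read-outs here: half of each dose group killed on day 10, tumor mass taken as animal mass lost on ascites aspiration, ascitocrit by microhematocrit centrifuge, rest followed daily for survival versus reference group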; conditions: for Survival (in % of control) / Survival time, Geom. mean / Total ascitocrit (%) of control / Total ascitocrit (mass of cell fraction of a tumor), Arithm. mean / Tumor mass (%) of control / Tumor mass, Arithm. mean: 1th-9th day; for Total ascitocrit (%) of control / Total ascitocrit (mass of cell fraction of a tumor), Arithm. mean / Tumor mass (%) of control / Tumor mass, Arithm. mean: dissection 10th day
[8] = 9 mg/kg/day as printed, middle dose group between 36 and 9, p.o. 3x, 1,5,9th day
[9] = 9 mg/kg/day p.o. 3x, 1,5,9th day (lowest dose group)
[10] = 12 mg/kg/day p.o. 9x, 1-9th day
[11] = 36 mg/kg/day p.o. 3x, 1,5,9th day

CC(=O)[O][Pt]([NH2])([Cl])([Cl])([NH]C1CCCCC1)[O]C(C)=O [LA-2, af-bis(acetato)-b-ammin-cd-dichloro-e-(cyclohexylamine)platinum (IV) complex]
Effect at the single oral dose of 10 mg/kg for IP-L 1210, in words (leucaemia L1210 [1]; 10 mg/kg (30 mg/m^2) single oral dose): no effect
Antitumor effect (survival time versus control), in words (leucaemia L1210 [1]; mouse, in vivo): No effect has been proven
Survival (in % of control) (leucaemia L1210 [1]; mouse, in vivo): 63% and 85% and 81% and 94% and 99%
Survival time, Geom. mean (leucaemia L1210 [1]; mouse, in vivo): 8.0 days and 10.7 days and 10.3 days and 11.9 days and 12.5 days
Survival (in % of control) (leucaemia L1210 [2]; 2 mg/kg/day p.o. 3x): >129%
Survival time, Geom. mean (leucaemia L1210 [2]; 2 mg/kg/day p.o. 3x): 20.2 days
Survival (in % of control) (leucaemia L1210 [2]; 4 mg/kg/day p.o. 3x): 118%
Survival time, Geom. mean (leucaemia L1210 [2]; 4 mg/kg/day p.o. 3x): 18.5 days
Survival (in % of control) (leucaemia L1210 [2]; 8 mg/kg/day p.o. 3x): <148%
Survival time, Geom. mean (leucaemia L1210 [2]; 8 mg/kg/day p.o. 3x): 23.2 days
Optimum dose as calculated according to Carter (leucaemia L1210 [2]; intermitent oral administration 3x): 10.96 mg/kg/day p.o.×3
Survival (in % of control) (leucaemia L1210 [3]; 3 mg/kg/day p.o. 9x, 1-9th day): 162%
Survival time, Geom. mean (leucaemia L1210 [3]; 3 mg/kg/day p.o. 9x, 1-9th day): 18.7 days
Survival (in % of control) (leucaemia L1210 [3]; 6 mg/kg/day p.o. 9x, 1-9th day): 173%
Survival time, Geom. mean (leucaemia L1210 [3]; 6 mg/kg/day p.o. 9x, 1-9th day): 20.0 days
Survival (in % of control) (leucaemia L1210 [3]; [8]): 160%
Survival time, Geom. mean (leucaemia L1210 [3]; [8]): 18.6 days
Survival (in % of control) (leucaemia L1210 [3]; [9]): 99%
Survival time, Geom. mean (leucaemia L1210 [3]; [9]): 11.4 days
Survival (in % of control) (leucaemia L1210 [3]; [10]): 99%
Survival time, Geom. mean (leucaemia L1210 [3]; [10]): 11.5 days
Survival (in % of control) (leucaemia L1210 [3]; [11]): 130%
Survival time, Geom. mean (leucaemia L1210 [3]; [11]): 15.1 days
Evaluation of antitumor effect (survival time versus control), in words (leucaemia L1210 [3]; LA-12 6 mg/kg p.o.×9, Platidiam 8 and 4 mg/kg s.c.×1, LA-2 any of the dosage groups): antitumor uneffective
Survival (in % of control) (leucaemia L1210 [4]; 3 mg/kg/day p.o. 9x): 214%
Survival time, Geom. mean (leucaemia L1210 [4]; 3 mg/kg/day p.o. 9x): 48.1 days
Increase of survival time value in comparison with the control group (leucaemia L1210 [4]; 3 mg/kg/day p.o.×9): 114%
Survival (in % of control) (leucaemia L1210 [4]; 6 mg/kg/day p.o. 9x): 137%
Survival time, Geom. mean (leucaemia L1210 [4]; 6 mg/kg/day p.o. 9x): 30.8 days
Survival (in % of control) (leucaemia L1210 [4]; 12 mg/kg/day p.o. 9x): 108%
Survival time, Geom. mean (leucaemia L1210 [4]; 12 mg/kg/day p.o. 9x): 24.4 days
Tumor mass (%) of control (Gardner lymphosarcoma; 2 mg/kg p.o. 1x): 90%
Tumor mass, Arithm. mean (Gardner lymphosarcoma; 2 mg/kg p.o. 1x): 5.61 g
Tumor mass (%) of control (Gardner lymphosarcoma; 8 mg/kg p.o. 1x): 99%
Tumor mass, Arithm. mean (Gardner lymphosarcoma; 8 mg/kg p.o. 1x): 6.19 g
Tumor mass (%) of control (Gardner lymphosarcoma; 32 mg/kg p.o. 1x): 103%
Tumor mass, Arithm. mean (Gardner lymphosarcoma; 32 mg/kg p.o. 1x): 6.44 g
Effect on average mass of a tumor, in words (Gardner lymphosarcoma; single p.o. 32, 8 and 2 mg/kg): No effect has been observed
Tumor mass (%) of control ([5]; 3 mg/kg/day p.o. 9x): 86%
Tumor mass, Arithm. mean ([5]; 3 mg/kg/day p.o. 9x): 4.00 g
Tumor mass (%) of control ([5]; 6 mg/kg/day p.o. 9x): 83%
Tumor mass, Arithm. mean ([5]; 6 mg/kg/day p.o. 9x): 3.86 g
Tumor mass (%) of control ([5]; 12 mg/kg/day p.o. 9x): 77%
Tumor mass, Arithm. mean ([5]; 12 mg/kg/day p.o. 9x): 3.59 g
Survival (in % of control) ([5]; mouse, in vivo): 100% and 115% and 113%
Survival time, Geom. mean ([5]; mouse, in vivo): 21.7 days and 24.9 days and 24.5 days
Evaluation of antitumor effect, in words ([5]; p.o.×9 12, 6, 3 mg/kg/day, Platidiam 8 and 4 mg/kg s.c. once): No effect was observed
Survival (in % of control) ([6]; 3 mg/kg/day p.o. 9x): 161%
Survival time, Geom. mean ([6]; 3 mg/kg/day p.o. 9x): 18.4 days
Tumor mass (%) of control ([6]; 3 mg/kg/day p.o. 9x): 119%
Tumor mass, Arithm. mean ([6]; 3 mg/kg/day p.o. 9x): 3.17 g
Survival (in % of control) ([6]; 6 mg/kg/day p.o. 9x): 156%
Survival time, Geom. mean ([6]; 6 mg/kg/day p.o. 9x): 17.9 days
Tumor mass (%) of control ([6]; 6 mg/kg/day p.o. 9x): 80%
Tumor mass, Arithm. mean ([6]; 6 mg/kg/day p.o. 9x): 2.13 g
Survival (in % of control) ([6]; 12 mg/kg/day p.o. 9x): 110%
Survival time, Geom. mean ([6]; 12 mg/kg/day p.o. 9x): 12.6 days
Tumor mass (%) of control ([6]; 12 mg/kg/day p.o. 9x): 79%
Tumor mass, Arithm. mean ([6]; 12 mg/kg/day p.o. 9x): 2.10 g
Significance of mean survival time increase in comparison with untreated control (p≦0.01), in words ([6]; Tab. 7-2): do not
Survival (in % of control) ([7]; 3 mg/kg/day p.o. 9x): 114%
Survival time, Geom. mean ([7]; 3 mg/kg/day p.o. 9x): 10.1 days
Total ascitocrit (%) of control ([7]; 3 mg/kg/day p.o. 9x): 108%
Total ascitocrit (mass of cell fraction of a tumor), Arithm. mean ([7]; 3 mg/kg/day p.o. 9x): 0.74 g
Tumor mass (%) of control ([7]; 3 mg/kg/day p.o. 9x): 90%
Tumor mass, Arithm. mean ([7]; 3 mg/kg/day p.o. 9x): 3.53 g
Survival time, Geom. mean ([7]; 6 mg/kg/day p.o. 9x): 13.2 days
Total ascitocrit (%) of control ([7]; 6 mg/kg/day p.o. 9x): 100%
Total ascitocrit (mass of cell fraction of a tumor), Arithm. mean ([7]; 6 mg/kg/day p.o. 9x): 0.69 g
Tumor mass (%) of control ([7]; 6 mg/kg/day p.o. 9x): 59%
Tumor mass, Arithm. mean ([7]; 6 mg/kg/day p.o. 9x): 2.32 g
Survival (in % of control) ([7]; 12 mg/kg/day p.o. 9x): 111%
Survival time, Geom. mean ([7]; 12 mg/kg/day p.o. 9x): 9.9 days
Total ascitocrit (%) of control ([7]; 12 mg/kg/day p.o. 9x): 95%
Total ascitocrit (mass of cell fraction of a tumor), Arithm. mean ([7]; 12 mg/kg/day p.o. 9x): 0.65 g
Tumor mass (%) of control ([7]; 12 mg/kg/day p.o. 9x): 70%
Tumor mass, Arithm. mean ([7]; 12 mg/kg/day p.o. 9x): 2.74 g
Evaluation of antitumor effect (survival time versus control), in words ([7]; p.o.×9, Platidiam 8 and 4 mg/kg s.c.×1, Tab. 8.1): didnot increase the survival time statistically significant
